Series [1] in a line: Stability of pirfenidone dose preparation in vehicle. The format is physicochemical. The note with it: 0.9% saline. Here is the method:
• Vehicle: 0.9% saline • Working concentration: 66.67 mg/ml • Preparation: Add 1000 mg of pirfenidone to 15 mL of 0.9% saline • Stability in vehicle: Stable for a minimum of 8 days
• Vehicle: 0.9% saline • Working concentration: 33.33 mg/mL • Preparation: Add 12 mL of high dose pirfenidone to 12 mL of 0.9% saline • Stability in vehicle: Stable for a minimum of 8 days

The subject of series [2] is mouse model of (POCD). Put plainly: Fear conditioning context testing in laparotomy mouse model of POCD. The format is in vivo, Male C57BI/6 mice. From the text:
(§1) To induce POCD, mice were anesthetized with isoflurane and maintained at a surgical plane of anesthesia (2-2.5%). The abdomen was shaved and cleaned/disinfected with both betadine and ethanol (70%). A 1.5 cm vertical incision was made along the midline of the abdomen, perforating the skin and the peritoneal cavity. A sterile blunt probe was inserted into the cavity, and the abdominal viscera and musculature were manipulated for five minutes. Abdominal muscles and skin were sutured, polysporin and topical lidocaine were applied to the incision site, and buprenorphine (0.1 mg/kg s.c.) was administered. Animals were placed into a clean, pre-warmed home cage for recovery and housed singly thereafter.
(§2) Fear conditioning is a commonly used test of associative learning where a […] stimulus is paired with an aversive unconditioned stimulus, resulting in a freezing response that can be subsequently quantified. Training occurred on the day prior to surgery, context testing on PSD1 (i.e., 2 days after training) and PSD3 (i.e., 4 days after training), and cued testing on PSD3 at a time point three hours after the final context test. For training and context testing, mice were placed in an operant chamber (Med Associates). For cued testing, mice were placed into a novel arena with novel external environment and scent.
(§3) Fear conditioning training was performed to generate an association between a neutral “conditional” stimulus (80 dB tone) with an aversive “unconditional” stimulus (0.4 mA shock). Before training, the system was tested to confirm proper operation of the shock and tone. During training, the testing environment was kept quiet and well controlled. Temperature and humidity levels were kept constant and the experimenter was not visible from the operant chamber, which was cleaned between animals. The training protocol was as follows: 1. Each mouse was habituated to the testing room for 20 minutes. 2. Video recording was initiated and the animal's ID card was recorded. 3. Each mouse was placed into the operant chamber and the training protocol was implemented as follows: a. 120 seconds; no stimuli (habituation to the chamber); b. 20 seconds, tone presentation (80 dB); c. 20 seconds, no stimuli (trace delay period); d. 2 seconds, foot shock (0.4 mA); e. 90 seconds, no stimuli (intertrial interval); f. repeat steps a-d followed by a final 30 second no stimuli period. 4. The mouse was returned to its home cage.
The purpose of context testing is to evaluate context memory for an aversive environment. Materials for this process included the operant testing chamber, a video recorder, a stopwatch, and data recording sheets. During the testing process the testing environment was kept quiet and well controlled with constant temperature and humidity levels. It was ensured that the experimenter was not visible from the operant chamber. The chamber was cleaned between animals.
Context testing was performed as follows: 1. The mouse was habituated to the testing room for 15 minutes. 2. Video recording was initiated and the animal's ID card recorded. 3. The mouse was placed in the operation chamber and allow ed 270 seconds exploration time. 4. The mouse was returned to its home cage.
Fear conditioning context testing was performed on PSD1 and PSD3, with exposure to the contextual environment presented at the equivalent time of day to the training period in the same arena as was used for training. On PSD3, following the final contextual testing, the cued testing phase was performed. […]

For series [3] the following is noted: Macias-Barragan J, et al.; cited from earlier work.
The conditions of series [4]: healthy subjects; cited from earlier work.
For series [5], the system named is mouse model of (POCD). In words: Fear conditioning cued testing in laparotomy mouse model of POCD. The settings on record: PSD3. The format is in vivo, Male C57BI/6 mice.
Excerpt: as §1, §2, §3
The purpose of cued testing is to evaluate cued memory for an aversive stimulus. […]
Cued testing was performed as follows: 1. […] Video recording was initiated and the animal's ID card was recorded. […]

Some results are limits rather than exact numbers.

Turning to `Cc1ccc(=O)n(-c2ccccc2)c1` [pirfenidone, 5-methyl-1-phenyl-2-(1H)-pyridone], the Stability in vehicle in series [1] (33.33 mg/mL (low dose)) and in series [1] (66.67 mg/ml (high dose)) was at least 8 days each time. For the same compound, the “time spent freezing, contextual test, within-group PSD3 compared to PSD1” value is listed as “less time freezing” in the series on mouse model of (POCD) [2] (Acute (400 mg/kg p.o. single presurgical dose), p=0.009, paired t-test) and “no difference between test presentation days” with mouse model of (POCD) [2] (Chronic (400 mg/kg initial; 200 mg/kg p.o. 1x/day), p=0.942, paired t-test). The “time spent freezing, contextual test” value with mouse model of (POCD) [2] (PSD1, Acute (400 mg/kg p.o. single presurgical dose) compared to Chronic pirfenidone animals, p=0.027, LSD post-hoc) is “increased freezing”; in the series on mouse model of (POCD) [2] (PSD3, Acute (400 mg/kg p.o. single presurgical dose) vs Normal Controls), “performed equivalently to Normal Controls”. In addition, the “time spent freezing, contextual test, between groups” value with mouse model of (POCD) [2] (PSD3, Acute and Chronic groups and controls, p=0.671, One-way ANOVA) is “no statistical difference between groups”. In series [3], the “crossing of the blood brain barrier” value is reported as “can cross the blood brain barrier”. Moreover, the mean terminal half-life result in series [4] is “approximately 3 hours”. Also, the “freezing during cued testing (overall measures)” value in the series with mouse model of (POCD) [5] (Acute (400 mg/kg p.o. single dose) compared to Chronic pirfenidone and Disease controls, longer freeze times) is on record as “increased mean performance”; with mouse model of (POCD) [5] (Chronic (400 mg/kg initial; 200 mg/kg p.o. 1x/day)) it was “performed more similarly to Disease Control”. Besides, the “freezing time, cued testing, post-tone period” value with mouse model of (POCD) [5] (Acute compared to Disease Control mice, longer freeze times) is “increased mean performance”; in the series with mouse model of (POCD) [5] (Chronic vs Normal Controls, p=0.088), “trend toward decreased freezing times”.

The values are drawn from US20240299698A1, “PREVENTION AND TREATMENT OF POST-OPERATIVE COGNITIVE DYSFUNCTION (POCD)” (Noetix Pharma LLC, priority 2022, published 2024).
